In series [1] the target is T1, PSMA (Homo sapiens, UniProt Q04609).
T1 construct: 100 μL of freshly harvested PSMA cells; endogenous in cells; host or cells: 'PSMA cells' in the method
Nature of the series: In vitro binding signals of 68Ga labeled ligands in LNCaP tumor homogenates. Particulars: Ga-68 radiolabeled ligands.

Series [2] has as its target T1, PSMA. The series can be described thus: In vitro competitive binding assay to determine IC50 to PSMA. Particulars: LNCaP cells, [125I]MIP-1095 radioligand, 37° C. 1 h, mean±SD (n=4); read-out: PSMA binding affinities of cold ligands, IC50. Here is the method: In Vitro Competitive Binding Assay to Determine IC50 to PSMA
In order to determine the binding affinity, in vitro competitive binding assays were performed. The LNCaP cells were incubated with 150,000 cpm of [^125I]MIP-1095 in the presence of 10 different concentrations of competing drugs. After incubation at 37° C. for 1 h, the bound and free radioactivity were separated by vacuum filtration through GF/B filter paper using a Brandel M-24R cell harvester followed by washing twice. Non-specific binding was defined with 10 μM PMPA. The cell bound radioactivity was measured with a gamma counter, 2470 Wizard^2 (Perkin-Elmer, IL). The IC50 values were calculated by fitting the data using a nonlinear regression algorithm (GraphPad Software).
The PSMA binding affinities were determined in a competitive binding assay using LNCaP human prostate carcinoma cells and the known high affinity PSMA ligand, [^125I]MIP-1095 as the radioligand. Data are expressed as mean±SD (n=4).

Series [3] has as its system LNCaP tumor bearing nude mice. Nature of the series: Biodistribution of [68Ga]labeled ligand in PSMA positive tumor bearing nude mice. It is filed as in vivo, mouse. Particulars: 1 h post-injection, i.v., n = 3. Here is the method:
In a dish contained 5×10^6 cells of LNCaP in 50% Matrigel (Becton Dickinson, Heidelberg, Germany) were subcutaneously inoculated into the left shoulder of male 5- to 6-week-old CD-1 nu/nu mice (Charles River Laboratories). The tumors were allowed to grow for 8 weeks until approximately 0.5 cm^3 in size.
The ^68Ga-radiolabeled compounds were injected via tail vein (25 μCi per mouse; 0.1-0.2 nmol). At 1 h after injection, the animals were sacrificed. Organs of interest were dissected and weighed. The radioactivity was measured with a gamma counter and calculated as % ID/g.

Series [4] has as its system PSMA-expressing LNCaP cells. Nature of the series: Cell binding and internalization. Format: cell-based, human. Conditions: 37° C. The protocol: The cellular uptake and internalization kinetics of the [^68Ga]1a, [^68Ga]5a and [^68Ga]5b were determined using PSMA-expressing LNCaP cells. Furthermore, to be able to discriminate between total cellular activity (sum of membrane-associated and internalized activity) and internalized activity, all incubations were followed by a washing step with mild acid at 4° C. to remove specifically cell-surface bound radioligand by displacement.
LNCaP cells (in 6-well plates in triplicates) were incubated in RPMI-1640 medium with [^68Ga]1a, [^68Ga]5a or [^68Ga]5b for 0-2 h at 37° C. At the indicated time, the medium was removed and the cells were washed twice and then incubated with a mild acid buffer (50 mM glycine, 150 mM NaCl, pH 3.0) at 4° C. for 5 min. The supernatant (containing cell surface-bound radioactivity) was pooled and the cell pellet (containing internalized radioactivity) was collected with filter paper and then radioactivity in supernatant and cell pellet was counted on a gamma counter.
LNCaP cells were incubated with [^68Ga]1a, [^68Ga]5a and [^68Ga]5b for up to 2 h at 37° C. to determine whether the compound is internalized by endocytosis. The cells were then washed with a mild acid buffer to remove extracellularly bound compound.
Non specific binding (NSB) was evaluated by blocking with 20 μM PMPA. Specificity of cell uptake (SB) was calculated by subtracting the respective signals resulting from PMPA blocking. Values are expressed as % of applied radioactivity bound to 10^6 cells.

The nature of series [5]: Biodistribution of radiotracers in normal mice. It is filed as in vivo, mouse. Conditions: for Biodistribution: Blood / Biodistribution: Bone / Biodistribution: Brain / Biodistribution: Heart / Biodistribution: Kidney / Biodistribution: Liver / Biodistribution: Lung / Biodistribution: Muscle / Biodistribution: Pancreas / Biodistribution: Skin / Biodistribution: Spleen: normal male mice. Here is the method: Normal CD-1 male mice were injected via the tail vein with 35 μCi of [^68Ga] radiotracers (0.2 nmole of ligand). […] All organs were removed and blood was also collected. Each organ was weighed, and the tissue radioactivity was measured with an automated gamma counter (Wizard, Perkin Elmer). The % ID/g was calculated by comparison with samples of a standard dilution of the initial dose. All measurements were corrected for decay.

T1 sequence (Q04609 whole entry): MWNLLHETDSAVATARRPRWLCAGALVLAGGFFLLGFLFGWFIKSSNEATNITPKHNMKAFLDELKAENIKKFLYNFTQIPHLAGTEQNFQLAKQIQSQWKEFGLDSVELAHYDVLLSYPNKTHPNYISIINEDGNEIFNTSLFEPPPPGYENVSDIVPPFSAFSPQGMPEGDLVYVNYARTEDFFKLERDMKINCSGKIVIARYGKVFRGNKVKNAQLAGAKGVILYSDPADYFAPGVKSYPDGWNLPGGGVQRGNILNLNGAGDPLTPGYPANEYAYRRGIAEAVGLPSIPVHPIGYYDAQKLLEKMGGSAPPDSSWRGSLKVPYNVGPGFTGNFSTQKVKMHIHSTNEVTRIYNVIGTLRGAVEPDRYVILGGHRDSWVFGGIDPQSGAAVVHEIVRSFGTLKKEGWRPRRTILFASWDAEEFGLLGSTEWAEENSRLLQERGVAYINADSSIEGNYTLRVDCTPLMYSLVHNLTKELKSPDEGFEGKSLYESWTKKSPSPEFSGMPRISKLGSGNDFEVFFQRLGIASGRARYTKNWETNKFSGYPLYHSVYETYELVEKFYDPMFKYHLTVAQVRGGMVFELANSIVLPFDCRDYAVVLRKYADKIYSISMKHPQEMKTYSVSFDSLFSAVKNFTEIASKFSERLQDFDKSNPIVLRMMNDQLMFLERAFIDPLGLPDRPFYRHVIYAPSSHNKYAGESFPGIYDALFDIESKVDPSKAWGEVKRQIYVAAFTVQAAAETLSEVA

As to `O=C(O)CCc1ccc(O)c(CN(CCN(CC(=O)O)Cc2cc(CCC(=O)NCC(=O)N[C@@H](Cc3ccc(OCC(=O)N[C@@H](Cc4ccccc4)C(=O)NCCCC[C@H](NC(=O)N[C@@H](CCC(=O)O)C(=O)O)C(=O)O)cc3)C(=O)O)ccc2O)CC(=O)O)c1` [Compound 5b, (4S,11S,15S)-4-Benzyl-1-(4-((S)-2-carboxy-2-(2-(3-(3-(((2-((5-(2-carboxyethyl)-2-hydroxybenzyl)(carboxymethyl)amino)ethyl)(carboxymethyl)amino)methyl)-4-hydroxyphenyl)propanamido)acetamido)ethyl)phenoxy)-2,5,13-trioxo-3,6,12,14-tetraazaheptadecane-11,15,17-tricarboxylic acid.], the “Specific binding (SB) SB = TB − NSB” value on PSMA [1] amounted to 10.54. On PSMA [1] (37° C. 60 min), the “Total binding (TB)” value came to 10.73. The “Nonspecific binding (NSB)” value on PSMA [1] (with 1a (PSMA11) 10 μM) came to 0.18.

On to `O=C(O)CC[C@H](NC(=O)N[C@@H](CCCCNC(=O)[C@H](Cc1ccccc1)NC(=O)COc1ccc(C[C@H](NC(=O)CNC(=O)c2cccc(I)c2)C(=O)O)cc1)C(=O)O)C(=O)O` [Compound 5c, (4S,11S,15S)-4-Benzyl-1-(4-((S)-2-carboxy-2-(2-(3-iodobenzamido)acetamido)ethyl)phenoxy)-2,5,13-trioxo-3,6,12,14-tetraazaheptadecane-11,15,17-tricarboxylic acid], for which the IC50 at PSMA [2] was 5 ± 1.9 nM.

For the compound `O=C(O)CC[C@H](NC(=O)N[C@@H](CCCCNC(=O)[C@H](Cc1ccccc1)NC(=O)COc1ccc(C[C@H](NC(=O)CNC(=O)c2ccccc2I)C(=O)O)cc1)C(=O)O)C(=O)O` [Compound 5d, (4S,11S,15S)-4-Benzyl-1-(4-((S)-2-carboxy-2-(2-(2-iodobenzamido)acetamido)ethyl)phenoxy)-2,5,13-trioxo-3,6,12,14-tetraazaheptadecane-11,15,17-tricarboxylic acid], the IC50 at PSMA [2] stood at 5.3 ± 2.2 nM.

`O=C(O)CC[C@H](NC(=O)N[C@@H](CCCCNC(=O)[C@H](Cc1ccccc1)NC(=O)COc1ccc(C[C@H](NC(=O)CNC(=O)c2ccc(F)nc2)C(=O)O)cc1)C(=O)O)C(=O)O` [Compound 5e]: the IC50 at PSMA [2] is 6 ± 1.8 nM.

As to `O=C(O)CC[C@H](NC(=O)N[C@@H](CCCCNC(=O)Nc1ccc(I)cc1)C(=O)O)C(=O)O` [MIP-1095, reference compound], the IC50 on PSMA [2] came out at 4.6 ± 1.4 nM.

As for `O=C(O)CC[C@H](NC(=O)N[C@@H](CCCCNC(=O)[C@H](Cc1ccccc1)NC(=O)COc1ccc(C[C@H](NC(=O)CNC(=O)C[N+]23CC[N+]45CC[N+]6(CC(=O)O)CC[N+]7(CC2)CC(=O)[O][68Ga-3]6347[O]C(=O)C5)C(=O)O)cc1)C(=O)O)C(=O)O` (some centres unmarked) [[^68Ga]5a], in series [3], the “Organ distribution: Blood” value is on record as 0.36 ± 0.05 % dose/g, the “Organ distribution: Bone” value worked out at 0.11 ± 0.04 % dose/g, the “Organ distribution: Brain” value worked out at 0.03 ± 0.01 % dose/g and the “Organ distribution: Heart” value is 0.19 ± 0.04 % dose/g. In addition, in series [3], the “Organ distribution: Liver” value worked out at 0.36 ± 0.10 % dose/g, the “Organ distribution: Lung” value was found to be 0.46 ± 0.13 % dose/g, the “Organ distribution: Muscle” value is reported as 0.21 ± 0.15 % dose/g and the “Organ distribution: Pancreas” value was determined as 0.20 ± 0.05 % dose/g. Besides, in series [3], the “Organ distribution: Skin” value amounted to 0.33 ± 0.17 % dose/g and the “Organ distribution: Spleen” value came out at 0.70 ± 0.38 % dose/g. Besides, in series [4] (5 min), the “Cell surface binding activity” value is 1.67 ± 0.24 % ID/10^6 cells and the Internalized activity was 0.21 ± 0.04 % ID/10^6 cells. In addition, in series [4] (15 min), the “Cell surface binding activity” value amounted to 1.92 ± 0.24 % ID/10^6 cells and the Internalized activity came to 1.14 ± 0.21 % ID/10^6 cells. Moreover, in series [4] (30 min), the “Cell surface binding activity” value stood at 1.96 ± 0.27 % ID/10^6 cells and the Internalized activity was 2.55 ± 0.42 % ID/10^6 cells. Moreover, in series [4] (60 min), the “Cell surface binding activity” value came out at 1.89 ± 0.13 % ID/10^6 cells and the Internalized activity turned out to be 3.70 ± 0.44 % ID/10^6 cells. In series [4] (90 min), the “Cell surface binding activity” value is 2.33 ± 0.01 % ID/10^6 cells and the Internalized activity is 5.40 ± 0.13 % ID/10^6 cells. In addition, in series [4] (120 min), the “Cell surface binding activity” value was 2.03 ± 0.23 % ID/10^6 cells and the Internalized activity was 5.43 ± 1.20 % ID/10^6 cells.

In the case of `O=C(O)CC[C@H](NC(=O)N[C@@H](CCCCNC(=O)CCCCCNC(=O)CCc1ccc(O)c(CN(CCN(CC(=O)O)Cc2cc(CCC(=O)NCCNC(=O)CN3CCN4CCN5CCN(CC3)CC(=O)[O][177Lu]([O]C(=O)C4)[O]C(=O)C5)ccc2O)CC(=O)O)c1)C(=O)O)C(=O)O` [[^177Lu]1g], in series [5] (0.5 hr), the “Biodistribution: Blood” value is listed as 0.64 ± 0.22 % dose/g, the “Biodistribution: Bone” value is given as 0.22 ± 0.05 % dose/g, the “Biodistribution: Brain” value is on record as 0.03 ± 0.01 % dose/g and the “Biodistribution: Heart” value is 0.28 ± 0.09 % dose/g. Further, in series [5] (0.5 hr), the “Biodistribution: Kidney” value is 40.6 ± 10.5 % dose/g, the “Biodistribution: Liver” value was found to be 0.23 ± 0.02 % dose/g, the “Biodistribution: Lung” value is recorded as 0.80 ± 0.38 % dose/g and the “Biodistribution: Muscle” value came to 0.27 ± 0.07 % dose/g. In addition, in series [5] (0.5 hr), the “Biodistribution: Pancreas” value is given as 0.40 ± 0.07 % dose/g, the “Biodistribution: Skin” value is listed as 0.56 ± 0.12 % dose/g and the “Biodistribution: Spleen” value stood at 0.78 ± 0.37 % dose/g. Also, in series [5] (1 hr), the “Biodistribution: Blood” value amounted to 0.15 ± 0.05 % dose/g, the “Biodistribution: Bone” value is 0.11 ± 0.01 % dose/g, the “Biodistribution: Brain” value worked out at 0.01 ± 0.00 % dose/g and the “Biodistribution: Heart” value is on record as 0.14 ± 0.01 % dose/g. For the same compound, in series [5] (1 hr), the “Biodistribution: Kidney” value amounted to 30.3 ± 3.50 % dose/g, the “Biodistribution: Liver” value was 0.12 ± 0.02 % dose/g, the “Biodistribution: Lung” value amounted to 0.45 ± 0.13 % dose/g and the “Biodistribution: Muscle” value amounted to 0.11 ± 0.03 % dose/g. Further, in series [5] (1 hr), the “Biodistribution: Pancreas” value came to 0.32 ± 0.183 % dose/g, the “Biodistribution: Skin” value is 0.21 ± 0.04 % dose/g and the “Biodistribution: Spleen” value is given as 0.92 ± 0.24 % dose/g. Besides, in series [5] (6 hr), the “Biodistribution: Blood” value stood at 0.01 ± 0.00 % dose/g, the “Biodistribution: Bone” value was 0.12 ± 0.01 % dose/g, the “Biodistribution: Brain” value is listed as 0.01 ± 0.00 % dose/g and the “Biodistribution: Heart” value stood at 0.02 ± 0.01 % dose/g. In addition, in series [5] (6 hr), the “Biodistribution: Kidney” value is 17.8 ± 4.07 % dose/g, the “Biodistribution: Liver” value is 0.07 ± 0.01 % dose/g, the “Biodistribution: Lung” value amounted to 0.11 ± 0.00 % dose/g and the “Biodistribution: Muscle” value was found to be 0.03 ± 0.00 % dose/g. In series [5] (6 hr), the “Biodistribution: Pancreas” value was determined as 0.08 ± 0.03 % dose/g, the “Biodistribution: Skin” value was found to be 0.06 ± 0.00 % dose/g and the “Biodistribution: Spleen” value came to 0.28 ± 0.08 % dose/g. In series [5] (24 hr), the “Biodistribution: Blood” value is 0.01 ± 0.00 % dose/g, the “Biodistribution: Bone” value is listed as 0.12 ± 0.01 % dose/g, the “Biodistribution: Brain” value was 0.01 ± 0.00 % dose/g and the “Biodistribution: Heart” value stood at 0.01 ± 0.00 % dose/g. For the same compound, in series [5] (24 hr), the “Biodistribution: Kidney” value amounted to 4.02 ± 1.34 % dose/g, the “Biodistribution: Liver” value was found to be 0.03 ± 0.00 % dose/g, the “Biodistribution: Lung” value came out at 0.03 ± 0.01 % dose/g and the “Biodistribution: Muscle” value worked out at 0.01 ± 0.00 % dose/g. Moreover, in series [5] (24 hr), the “Biodistribution: Pancreas” value is on record as 0.02 ± 0.01 % dose/g, the “Biodistribution: Skin” value came to 0.04 ± 0.01 % dose/g and the “Biodistribution: Spleen” value was 0.04 ± 0.00 % dose/g. Besides, the “Initial uptakes in the kidneys, in words” value in series [5] (normal mice) was “comparable to that of [^68Ga]1g”.

For the origin of these results see patent US10688200B2, “Urea-based prostate specific membrane antigen (PSMA) inhibitors for imaging and therapy” (Five Eleven Pharma Inc., priority 2015, dated 2020).
